Experimental data published in patent US8193213B2, “Spermicidal and/or antifungal composition and methods of using the same” (priority 2003, dated 2012).
Marks after values point to notes of the source that are not given here.

How the values were obtained:
[1] = test system: Aspergillus fumigatus; test: Antifungal susceptibility testing (NCCLS, MIC/MFC) against A. fumigatus; assay type: cell-based; set-up: Lowest [Active]: unit not given here; settings: for CFU for MFC at 100 / CFU for MFC at 200 / CFU for MFC at 300 / Lowest [Active]: A. fumigatus (48 hours); for CFU for MFC at 100: concentration 100; for CFU for MFC at 200: concentration 200; for CFU for MFC at 300: concentration 300; for Lowest [Active]: concentrations 300, 200, 100, unit not given, N/A = no active concentration; for Lowest MIC / Lowest MFC: A. fumigatus; for Lowest MIC: lowest concentration that appears to have no growth; for Lowest MFC: lowest concentration that kills >= 98% of the cells in the well
Protocol: (§1) Antifungal susceptibility testing was performed following the NCCLS guidelines with minor modifications. Briefly, a suspension of Candida albicans cells was prepared from pure cultures grown overnight on yeast-malt extract (YM) agar at 35° C. Several small colonies were removed from a YM agar plate and transferred to 5 ml of 0.85% saline. The cells were suspended by 15 seconds of vortexing and the cell density of the resulting suspension was determined using a spectrophotometer. The cell density was adjusted by addition of 0.85% saline until the transmittance matched that of a 0.5 McFarland standard when measured at a wavelength of 530 nm. An aliquot of this suspension was diluted 1:1000 in RPMI-MOPS to yield a working suspension. A similar suspension of Aspergillus fumigatus spores was obtained by using spores stored at […] in 0.85% saline. These spores were diluted in 0.85% saline to match the McFarland standard transmittance. This suspension was then further diluted 1:50 in RPMI-MOPS to produce the working inoculum suspension.
(§2) Dilution series of the test compounds were made in RPMI-MOPS containing 2% DMSO. An aliquot of each dilution was added in duplicate to the wells of a sterile 96-well, flat bottom microtiter plate. Then, an aliquot of either the C. albicans cell suspension or the A. fumigatus spore suspension were added to each well for a final volume of 200 μl. The plates were then incubated at […]. […] A similar determination was made for the A. fumigatus plates after 48 hours. […] The numbers of colony forming units (CFU) were counted and these values used to calculate the percent survival of cells or spores in inocula relative to the number of CFUs in the working inoculum suspension. The minimum fungicidal concentration (MFC) was the lowest concentration of test compound with a percent survival of less than 2%.

[2] = test system: Candida albicans; test: Antifungal susceptibility testing (NCCLS, MIC/MFC) against C. albicans; assay type: cell-based; set-up: Lowest [Active]: unit not given here; settings: for CFU for MFC at 100 / CFU for MFC at 200 / CFU for MFC at 300 / Lowest [Active]: C. albicans (19 hours); for CFU for MFC at 100: concentration 100; for CFU for MFC at 200: concentration 200; for CFU for MFC at 300: concentration 300; for Lowest [Active]: concentrations 300, 200, 100, unit not given, N/A = no active concentration; for Lowest MIC: lowest concentration that appears to have no growth; for Lowest MFC: lowest concentration that kills >= 98% of the cells in the well
Protocol: as §1, §2

[3] = test system: adult male Swiss mice; test: Antispermatogenic screen: single gavage dose to male mice, testes weight and Spermatogenic Index at 72 h; assay type: in vivo; settings: day 3 (72 h)
Protocol: The compounds of the invention were tested in mice for their effects on spermatogenesis three days after a single oral dose by the procedure described in Cook et al (1995) below. Compounds active in this test have been shown also to be anti-fertility compounds.
Compounds were screened for antispermatogenic activity by dosing male mice on day 1 with a gavage dose of control vehicle, positive control (compound 1) or compound of the invention. At 72 h after dosing, animals were killed and the testes were excised, trimmed of fat, and weighed. One testis was examined histologically and rated for spermatogenic potential using the Spermatogenic Index (J. M. Whitsett, P. F. Noden, J. Cherry and A. D. Lawton, J. Reprod. Fertil., 72, 277 (1984), which is a semiquantitative estimate of the sperm producing ability of the testes The index is based on histological appearance of the spermatogenic cells in the seminiferous tubules. A scale of 1 to 6 is used with 5 to 6 being the normal status. A second assessment was based on the weight of the testes.
Tables 1 and 2 show pertinent biological results in terms of the change in testes weight (TW) and spermatogenic index (SI) relative to a control containing only the administration vehicle, but no indenopyridine. In Tables 1 and 2, R^3 and R^4 refer to structures Ib, where R^3 is in the para position; R^1 is ethyl; R^2 is methyl; and R^5 is hydrogen.

[4] = racemic compounds, 1 mg/kg single gavage dose, vehicle 90% water, 7% Tween20, 3% ethanol
[5] = racemic compounds, 3 mg/kg single gavage dose, vehicle 90% water, 7% Tween20, 3% ethanol
[6] = racemic compounds, 10 mg/kg single gavage dose, vehicle 90% water, 7% Tween20, 3% ethanol
[7] = Table 2, 0.3 mg/kg single gavage dose, vehicle 1% Tween20 in water
[8] = Table 2, 1 mg/kg single gavage dose, vehicle 1% Tween20 in water
[9] = Table 2, 3 mg/kg single gavage dose, vehicle 1% Tween20 in water
[10] = Table 2, 10 mg/kg single gavage dose, vehicle 1% Tween20 in water
[11] = Table 2, 30 mg/kg single gavage dose, vehicle 1% Tween20 in water

CCN1CCC2C(C1)c1cc(I)c(C)cc1C2c1ccc(C(=O)OC)cc1.Cl (stereo not shown) [Compound 4587-073d]
CFU for MFC at 100 [1]: Cidal (Cidal = >98% killed)
CFU for MFC at 200 [1]: Cidal (Cidal = >98% killed)
CFU for MFC at 300 [1]: Cidal (Cidal = >98% killed)
Lowest [Active] [1]: 100
CFU for MFC at 100 [2]: Static (Static = well looked clear, but <98% killed)
CFU for MFC at 200 [2]: Cidal (Cidal = >98% killed)
CFU for MFC at 300 [2]: Cidal (Cidal = >98% killed)
Lowest [Active] [2]: 100

CCN1CC[C@@H]2[C@@H](c3ccc(C(=O)O)cc3)c3cc(C)c(I)cc3[C@@H]2C1.Cl (racemic) [Compound 17, (4aRS,5SR,9bRS)-2-Ethyl-2,3,4,4a,5,9b-hexahydro-8-iodo-7-methyl-5-(4-carboxyphenyl)-1H-indeno[1,2-c]pyridine Hydrochloride]
SI change (%) (Spermatogenic Index, % change from vehicle control) [3, 4]: −67%*
TW change (%) (testes weight, % change from vehicle control) [3, 4]: −18%
SI change (%) (Spermatogenic Index, % change from vehicle control) [3, 5]: −66%*
TW change (%) (testes weight, % change from vehicle control) [3, 5]: −9%
SI change (%) (Spermatogenic Index, % change from vehicle control) [3, 6]: −76%*
TW change (%) (testes weight, % change from vehicle control) [3, 6]: −32%*

CC(=O)N1CCN(c2ccc(OCC3COC(Cn4ccnc4)(c4ccc(Cl)cc4Cl)O3)cc2)CC1 (stereo not shown) [Ketaconazole, reference compound]
Lowest MIC [1]: 8 µg/mL
Lowest MIC ([2]; C. albicans): 32 µg/mL

CCN1CCC2=C(c3ccc(C)cc3)c3cc(C)ccc3C2C1.Cl (racemic) [Compound 4587-040]
CFU for MFC at 100 [1]: Cidal (Cidal = >98% killed)
CFU for MFC at 200 [1]: Cidal (Cidal = >98% killed)
CFU for MFC at 300 [1]: Cidal (Cidal = >98% killed)
Lowest [Active] [1]: 100
CFU for MFC at 100 [2]: Cidal (Cidal = >98% killed)
CFU for MFC at 200 [2]: Cidal (Cidal = >98% killed)
CFU for MFC at 300 [2]: Cidal (Cidal = >98% killed)
Lowest [Active] [2]: 100

CCCOC(=O)c1ccc(C2c3cc(C)ccc3C3CN(CC)CCC32)cc1.Cl (racemic) [Compound 4587-062]
Lowest MIC [1]: 10 µg/mL
Lowest MFC [1]: 10 µg/mL
Lowest MIC ([2]; C. albicans): 20 µg/mL
Lowest MFC ([2]; C. albicans): 20 µg/mL

CCN1CCC2C(C1)c1ccc(C)cc1C2c1ccc(C)cc1.Cl (stereo not shown) [Compound 4587-002l]
Lowest MIC [1]: 50 µg/mL
Lowest MFC [1]: 75 µg/mL
Lowest MIC ([2]; C. albicans): 75 µg/mL
Lowest MFC ([2]; C. albicans): 100 µg/mL

CCN1CCC2C(C1)c1cc(I)c(C)cc1C2c1ccc(C(=O)OC)cc1 (single isomer, unassigned) [18 (l)]
SI change (%) (Spermatogenic Index, % change from vehicle control) [3, 7]: −34%*
TW change (%) (testes weight, % change from vehicle control) [3, 7]: −11%*
SI change (%) (Spermatogenic Index, % change from vehicle control) [3, 8]: −66%*
TW change (%) (testes weight, % change from vehicle control) [3, 8]: −21%*
SI change (%) (Spermatogenic Index, % change from vehicle control) [3, 9]: −71%*
TW change (%) (testes weight, % change from vehicle control) [3, 9]: −27%*
SI change (%) (Spermatogenic Index, % change from vehicle control) [3, 10]: −72%*
TW change (%) (testes weight, % change from vehicle control) [3, 10]: −31%*

CCN1CCC2=C(c3ccc(OC)cc3)c3cc(C)ccc3C2C1.Cl (stereo not shown) [Compound 4587-082]
Lowest MIC [1]: 100 µg/mL
Lowest MFC [1]: 100 µg/mL
Lowest MIC ([2]; C. albicans): >100 µg/mL

CCN1CCC2C(C1)c1ccc(C)cc1C2c1ccc(C)cc1.Cl (stereo not shown) [Compound 4587-002d]
Lowest MIC [1]: 50 µg/mL
Lowest MFC [1]: 50 µg/mL
Lowest MFC (class word) ([2]; C. albicans): fungistatic (Fungistatic = compound with an MIC, but <98% of cells killed)
Lowest MIC ([2]; C. albicans): 50 µg/mL

CCc1ccc2c(c1)[C@@H](c1ccc(C(=O)OC)cc1)[C@@H]1CCN(CC)C[C@H]21.Cl (racemic) [Compound 4587-064]
CFU for MFC at 100 [1]: Cidal (Cidal = >98% killed)
CFU for MFC at 200 [1]: Cidal (Cidal = >98% killed)
CFU for MFC at 300 [1]: Cidal (Cidal = >98% killed)
Lowest [Active] [1]: 100
Lowest MIC [1]: 50 µg/mL
Lowest MFC [1]: 75 µg/mL
CFU for MFC at 100 [2]: Static (Static = well looked clear, but <98% killed)
CFU for MFC at 200 [2]: Cidal (Cidal = >98% killed)
CFU for MFC at 300 [2]: Cidal (Cidal = >98% killed)
Lowest [Active] [2]: 100
Lowest MIC ([2]; C. albicans): 100 µg/mL
Lowest MFC ([2]; C. albicans): 100 µg/mL

CCN1CC[C@@H]2[C@@H](c3ccc(C(=O)OC)cc3)c3cc(C)ccc3[C@@H]2C1.Cl (single isomer, unassigned) [3 (l), (1)-Enantiomer of (4aRS,5SR,9bRS)-2-Ethyl-2,3,4,4a,5,9b-hexahydro-7-methyl-5-(4-carbomethoxyphenyl)-1H-indeno[1,2-c]pyridine Hydrochloride]
SI change (%) (Spermatogenic Index, % change from vehicle control) [3, 8]: 3%
TW change (%) (testes weight, % change from vehicle control) [3, 8]: 8%
SI change (%) (Spermatogenic Index, % change from vehicle control) [3, 9]: −2%
TW change (%) (testes weight, % change from vehicle control) [3, 9]: −12%
SI change (%) (Spermatogenic Index, % change from vehicle control) [3, 10]: −33%*
TW change (%) (testes weight, % change from vehicle control) [3, 10]: −13%
SI change (%) (Spermatogenic Index, % change from vehicle control) [3, 11]: −64%*
TW change (%) (testes weight, % change from vehicle control) [3, 11]: −30%*

CCN1CC[C@@H]2[C@@H](c3ccc(C(=O)O)cc3)c3cc(C)c(Cl)cc3[C@@H]2C1.Cl (racemic) [Compound 20, (4aRS,5SR,9bRS)-2-Ethyl-8-Chloro-7-Methyl-2,3,4,4a,5,9b-Hexahydro-5-(4-carboxylphenyl)-1H-Indeno[1,2-c]pyridine Hydrochloride]
SI change (%) (Spermatogenic Index, % change from vehicle control) [3, 4]: −55%*
TW change (%) (testes weight, % change from vehicle control) [3, 4]: −16%
SI change (%) (Spermatogenic Index, % change from vehicle control) [3, 5]: −66%*
TW change (%) (testes weight, % change from vehicle control) [3, 5]: −23%
SI change (%) (Spermatogenic Index, % change from vehicle control) [3, 6]: −72%*
TW change (%) (testes weight, % change from vehicle control) [3, 6]: −22%

CCN1CCC2C(C1)c1ccc(C)cc1C2c1ccc(CO)cc1.Cl (racemic) [Compound 4587-055]
CFU for MFC at 300 [2]: Static (Static = well looked clear, but <98% killed)
Lowest [Active] [2]: 300

CCN1CCC2C(C1)c1ccc(C)cc1C2c1ccc(C#N)cc1.Cl (racemic) [Compound 4587-060]
CFU for MFC at 200 [1]: Cidal (Cidal = >98% killed)
Lowest [Active] [1]: 200

CCN1CCC(C(c2ccc(C)cc2)c2cccc(C)c2)CC1.Cl (stereo not shown) [Compound 4587-006]
CFU for MFC at 300 [2]: Static (Static = well looked clear, but <98% killed)
Lowest [Active] [2]: 300
